Results on 54 compounds are retold here after US11618749B2, “Compounds and compositions for treating conditions associated with STING activity” (IFM Due, Inc., priority 2018, dated 2023).

The target in this test is T1, hSTING (Homo sapiens, UniProt Q86WV6, G230A/H232R/R293Q/R71H).
T1 construct: host or cells: THP1-Dual KO-IFNAR2 cells
In words: STING reporter assay (luciferase reporter) in THP1-Dual KO-IFNAR2 cells activated with 2′3′cGAMP. The class given is cell-based. The note with it: 15 μM 2′3′cGAMP, 24 h, luciferase reporter activity. As for the experimental part:
STING pathway activation by the compounds described herein is measured using THP1-Dual™ cells (KO-IFNAR2).
THP1-Dual™ KO-IFNAR2 Cells (obtained from invivogen) are maintained in RPMI, 10% FCS, 5 ml P/S, 2 mM L-glut, 10 mM Hepes, and 1 mM sodium pyruvate. Compounds are spotted in empty 384 well tissue culture plates (Greiner 781182) by Echo for a final concentration of […]. Cells are plated into the TC plates at 40 μL per well, 2×10E6 cells/mL. For activation with STING ligand, 2′3′cGAMP (MW 718.38, obtained from Invivogen), is prepared in Optimem media.
The following solutions are prepared for each 1×384 plate: • Solution A: 2 mL Optimem with one of the following stimuli: • 60 uL of 10 mM 2′3′cGAMP→150 μM stock • Solution B: 2 mL Optimem with 60 μL Lipofectamine 2000→Incubate 5 min at RT
2 mL of solution A and 2 ml Solution B is mixed and incubated for 20 min at room temperature (RT). 20 uL of transfection solution (A+B) is added on top of the plated cells, with a final 2′3′cGAMP concentration of 15 μM. The plates are then centrifuged immediately at 340 g for 1 minute, after which they are incubated at 37° C., 5% CO2, >98% humidity for 24 h. Luciferase reporter activity is then measured. EC50 values were calculated by using standard methods known in the art.
Luciferase Reporter Assay:
10 μL of supernatant from the assay is transferred to white 384-plate with flat bottom and squared wells. one pouch of QUANTI-Luc™ Plus is dissolved in 25 mL of water. 100 μL of QLC Stabilizer per 25 mL of QUANTI-Luc™ Plus solution was added. 50 μL of QUANTI-Luc™ Plus/QLC solution per well is then added. Luminescence is measured on a Platereader (e.g., Spectramax I3X (Molecular Devices GF3637001)).
Luciferase reporter activity is then measured. EC50 values are calculated by using standard methods known in the art.

T1 sequence (Q86WV6 whole entry R71H/G230A/H232R/R293Q): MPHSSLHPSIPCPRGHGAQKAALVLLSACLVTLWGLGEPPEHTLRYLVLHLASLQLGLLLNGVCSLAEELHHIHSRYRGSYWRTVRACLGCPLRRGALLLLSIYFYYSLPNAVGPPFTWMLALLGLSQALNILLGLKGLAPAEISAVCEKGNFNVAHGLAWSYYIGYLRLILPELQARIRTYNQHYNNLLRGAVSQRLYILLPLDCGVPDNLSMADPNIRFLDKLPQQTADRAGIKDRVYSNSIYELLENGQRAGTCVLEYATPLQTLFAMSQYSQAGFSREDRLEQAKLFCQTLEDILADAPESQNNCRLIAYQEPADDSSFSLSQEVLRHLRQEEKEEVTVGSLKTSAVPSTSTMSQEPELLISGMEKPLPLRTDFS

As for `O=C(Nc1ccc(C(F)(F)F)cc1)Nc1c[nH]c2ccncc12` [Compound 145], the EC50 was in the range of 0.2 to 1 µM.

`CC(C)n1cc(-c2ccnc3[nH]cc(NC(=O)Nc4ccc(C(F)(F)F)cc4)c23)cn1` [Compound 186] registered an EC50 of 5 to 100 µM. The value for `O=C(Nc1cccc(C(F)(F)F)c1)Nc1c[nH]c2ccncc12` [Compound 148] was 1 to 5 µM; that for `O=C(Nc1c[nH]c2cccnc12)NC1CC2CCC(C2)C1` (stereo not drawn) [Compound 157] was 5 to 100 µM; that for `CN(C(=O)Nc1c[nH]c2ncc(F)cc12)c1ccc(C(F)(F)F)cc1` [Compound 172] was 5 to 100 µM. For `O=C(Nc1c[nH]c2cnccc12)NC1CCC(c2ccccc2)CC1` (stereo not drawn) [Compound 137] the value was 1 to 5 µM; for `Nc1cnc2[nH]cc(NC(=O)N3CC(c4ccccc4)C3)c2c1` [Compound 249], 5 to 100 µM. For `O=C(Nc1ccc(C(F)(F)F)cc1)Nc1c[nH]c2ncc(-c3ccc(N4CCOCC4)nc3)cc12` [Compound 188] the value was 5 to 100 µM; for `CCCCc1cccc(NC(=O)Nc2c[nH]c3ncc(F)cc23)c1` [Compound 274], 0.04 to 0.2 µM.

Regarding `O=C(Nc1c[nH]c2ncc(F)cc12)NC1CCN(CC(F)(F)F)CC1` [Compound 252], the EC50 fell in the range of 5 to 100 µM.

`O=C(Nc1ncc(-c2ccccc2)s1)Nc1c[nH]c2ncc(F)cc12` [Compound 293] yielded a concentration giving a half-maximal response (EC50) of 0.2 to 1 µM. For `O=C(Nc1cccc(C2CCCCC2)c1)Nc1c[nH]c2ncc(F)cc12` [Compound 271] the value was 0.2 to 1 µM; for `CC(c1ccc(-c2cnc3[nH]cc(NC(=O)Nc4ccc(C(F)(F)F)cc4)c3c2)cc1)N(C)C` (stereo not drawn) [Compound 196], 5 to 100 µM. For `O=C(Nc1cc(F)cc(F)c1)Nc1c[nH]c2ncccc12` [Compound 299] the value was 5 to 100 µM. As for `Cc1ccc2[nH]cc(NC(=O)Nc3ccc(C(F)(F)F)cc3)c2n1` [Compound 329], the EC50 is 0.2 to 1 µM. For `CCCCC1CCC(NC(=O)Nc2c[nH]c3cccnc23)CC1` (stereo not drawn) [Compound 322] the value was 1 to 5 µM; for `O=C(Nc1cccc(C2CCCCC2)c1)Nc1c[nH]c2cccnc12` [Compound 139], 0.2 to 1 µM; for `CC(C)n1cc(-c2cnc3[nH]cc(NC(=O)Nc4ccc(C(F)(F)F)cc4)c3c2)cn1` [Compound 193], 0.2 to 1 µM.

In turn, `O=C(Nc1ccc(C(F)(F)F)cc1)Nc1c[nH]c2ncc(C3CCCCC3)cc12` [Compound 267, 3-[5-cyclohexyl-1H-pyrrolo[2,3-b]pyridin-3-yl]-1-[4-(trifluoromethyl)phenyl] urea] had an EC50 of 1 to 5 µM. The value for `O=C(Nc1ccc(C(F)(F)F)cn1)Nc1c[nH]c2cccnc12` [Compound 152] was 5 to 100 µM. In turn, `C=Cc1cnc2[nH]cc(NC(=O)Nc3ccc(C(F)(F)F)cc3)c2c1` [Compound 276, 3-[5-ethenyl-1H-pyrrolo[2,3-b]pyridin-3-yl]-1-[4-(trifluoromethyl)phenyl] urea] had an EC50 of 0.2 to 1 µM.

`O=C(Nc1ccc(C2CCCCC2)cn1)Nc1c[nH]c2ccncc12` [Compound 316] showed an EC50 of 0.2 to 1 µM. For `CCc1ccc(CNC(=O)Nc2c[nH]c3ncccc23)cc1` [Compound 171] the value was 5 to 100 µM; for `CCCCC1CCN(C(=O)Nc2c[nH]c3ncc(F)cc23)CC1` [Compound 294], 5 to 100 µM; for `CC(C)(O)c1cccc(-c2cnc3[nH]cc(NC(=O)Nc4ccc(C(F)(F)F)cc4)c3c2)c1` [Compound 215], 1 to 5 µM.

In turn, `O=C(Nc1ccc(C2CCC2)c(F)c1)Nc1c[nH]c2ncc(F)cc12` [Compound 250] gave an EC50 of 0.2 to 1 µM. For `O=C(Nc1c[nH]c2ccncc12)NC1CCC(c2ccccc2)CC1` (stereo not drawn) [Compound 321] the value was 5 to 100 µM; for `C#Cc1cnc2[nH]cc(NC(=O)Nc3ccc(C(F)(F)F)cc3)c2c1` [Compound 258, 1-(5-ethynyl-1H-pyrrolo[2,3-b]pyridin-3-yl)-3-(4-(trifluoromethyl)phenyl)urea], 0.2 to 1 µM; for `CN(C)S(=O)(=O)c1cccc(-c2cnc3[nH]cc(NC(=O)Nc4ccc(C(F)(F)F)cc4)c3c2)c1` [Compound 204], 1 to 5 µM. For `CCCCC1CCN(C(=O)Nc2c[nH]c3cccnc23)CC1` [Compound 140] the value was 1 to 5 µM; for `O=C(Nc1c[nH]c2cccnc12)NC1CCC2(CCC2)CC1` [Compound 142], 1 to 5 µM; for `O=C(Nc1c[nH]c2ncccc12)N1CCCc2ccccc21` [Compound 301], 5 to 100 µM. For `O=C(Nc1ccc(C2CCCCC2)nc1)Nc1c[nH]c2cnccc12` [Compound 312] the value was 1 to 5 µM; for `C#Cc1ccc(NC(=O)Nc2c[nH]c3ncc(F)cc23)cc1` [Compound 291], 0.04 to 0.2 µM; for `CCCCc1ncc(NC(=O)Nc2c[nH]c3ncc(F)cc23)cc1F` [Compound 255], 0.2 to 1 µM.

Take `O=S(=O)(Nc1ccc(C(F)(F)F)cc1)Nc1c[nH]c2ncc(F)cc12` [Compound 337]: the half-maximal effective concentration (EC50) fell in the range of 5 to 100 µM. In turn, `O=C(Nc1ccc(C(F)(F)F)cc1)Nc1c[nH]c2cncc(F)c12` [Compound 164] registered an EC50 of 5 to 100 µM. The value for `Cn1cc(-c2cnc3[nH]cc(NC(=O)Nc4ccc(C(F)(F)F)cc4)c3c2)c(C(F)(F)F)n1` [Compound 198] was 1 to 5 µM; that for `C#Cc1ccc2[nH]cc(NC(=O)Nc3ccc(C(F)(F)F)cc3)c2n1` [Compound 324, 1-(5-ethynyl-1H-pyrrolo[3,2-b]pyridin-3-yl)-3-(4-(trifluoromethyl)phenyl)urea] was 5 to 100 µM. For `O=C(Nc1c[nH]c2ncccc12)NC1CCc2ccccc2C1` (stereo not drawn) [Compound 136] the value was 5 to 100 µM; for `O=C(Nc1ccc(C(F)(F)F)cc1)Nc1c[nH]c2nccc(-c3ccncc3)c12` [Compound 206], 5 to 100 µM. For `O=C(Nc1c[nH]c2ncc(F)cc12)NC1CCC2(CC1)CC2` [Compound 305] the value was 1 to 5 µM; for `O=C(Nc1c[nH]c2ncccc12)NC1CC2CCC(C2)C1` (stereo not drawn) [Compound 160], 5 to 100 µM; for `O=C(Nc1c[nH]c2ncccc12)NC1CCCC(c2ccccc2)C1` (stereo not drawn) [Compound 304], 5 to 100 µM.

For `O=C(Nc1c[nH]c2ccc(-c3ccccc3)nc12)NC1CCC(C(F)(F)F)CC1` (stereo not drawn) [Compound 335], the EC50 was 1 to 5 µM. The value for `O=C(Nc1cccc(C(F)(F)F)c1)Nc1c[nH]c2cccnc12` [Compound 332] was 1 to 5 µM; that for `O=C(Nc1ccc(C2CCCCC2)nc1)Nc1c[nH]c2ncccc12` [Compound 263] was 0.2 to 1 µM; that for `O=C(Nc1cccc2c1CCCC2)Nc1c[nH]c2ncc(F)cc12` [Compound 284] was 1 to 5 µM. On to `O=C(Nc1c[nH]c2ccncc12)NC1CC2CCC(C2)C1` (stereo not drawn) [Compound 161], for which the EC50 was 5 to 100 µM. For `O=C(Nc1ccc(C2CCCCC2)nc1)Nc1c[nH]c2cccnc12` [Compound 331] the value was 1 to 5 µM; for `CCCCc1ccc(N(CC)C(=O)Nc2c[nH]c3ncc(F)cc23)cc1` [Compound 245], 5 to 100 µM; for `CCCCC1CCN(C(=O)Nc2c[nH]c3ncccc23)CC1` [Compound 132], 1 to 5 µM.

On to `O=C(Nc1c[nH]c2ncccc12)NC1CCC(c2ccccc2)CC1` (stereo not drawn) [Compound 166], for which the EC50 was in the range of 0.2 to 1 µM. For `O=C(Nc1nc2ccccc2s1)Nc1c[nH]c2ncc(F)cc12` [Compound 292] the value was 0.2 to 1 µM.
